From US11235011B2, “Use of alphavirus in preparation of antitumor drugs” (GUANGZHOU VIROTECH PHARMACEUTICAL CO., LTD, priority 2014, dated 2022)
d = 2'-deoxy (DNA); r = 2'-OH (RNA)

Tests used:
ZAP = ZAP protein expression after ZAP RNA interference fragment (Western blot); type: cell-based, human
Method: The cells in the exponential growth phase were selected, and added into a DMEM complete medium (10% fetal bovine serum, 1% double antibody) to prepare a cell suspension, and the cells were inoculated into a 6-well plate at a density of 1×10^5/well. After 24 hours, Si RNA fragment wrapped with RNAiMAX was added. […] After 48 hours of the infection, the specimens were treated.

[1] = system: human ex vivo living liver cancer tissues; assay: Human ex vivo living tumor tissue culture, TECIA/MTT inhibition rate; type: cell-based; conditions: M1 virus 10^7 PFU, 5-Fu 10 mg/L, 96 hours
Method: (§1) The ex vivo living tissue was obtained by surgical excision in Tumor Prevention Center of Sun Yat-sen University, stored at 4 □, and then sent to the laboratory within four hours for drug sensitivity test. All the cases were confirmed by a histopathology examination. Under sterile condition, the tumor tissue was taken out, and cut into tissue pieces with a diameter of 0.5-1 mm, placed onto a 24-well culture plate (4-6 pieces per well), and 1 ml DMEM medium was added into each well. After one hour of culture, a projection illuminated image of the tumor tissue piece was taken by an image analyzer specialized for drug sensitivity test.
(§2) The tumor tissue was cultured in a CO2 cell incubator for 12 hours. […] After 96 hours of the infection treatment, MTT (5 mg/ml) was added at 50 μl/well, and cultured for 3 hours. A diffusion light illuminated image of the tumor tissue piece was then taken by an image analyzer specialized for drug sensitivity test, to determine the blue dyed area by formazan in the tumor piece in each well and the coloring degree (blue area, BA). Then the tissue survival rate (survival fraction, SF) was calculated according the following formula: […]

[2] = system: human ex vivo living colorectal cancer tissue; assay: as above; type: cell-based; conditions: M1 virus 10^7 PFU, 5-Fu 10 mg/L, 96 hours
Method: as §1, §2

Compound	ZAP protein expression quantity (ZAP; HCT116)	ZAP protein expression quantity (ZAP; L-02)	ZAP protein expression quantity (ZAP; PLC)	number of cases with inhibition rate (% control) >10% [1]	number of cases with inhibition rate (% control) ≤10% [1]	ratio of cases with inhibition rate (% control) >10% [1] [%]	ratio of cases with inhibition rate (% control) ≤10% [1] [%]	number of cases with inhibition rate (% control) >10% [2]	number of cases with inhibition rate (% control) ≤10% [2]	ratio of cases with inhibition rate (% control) >10% [2] [%]	ratio of cases with inhibition rate (% control) ≤10% [2] [%]
ZAP RNA interference fragment: ZAP interference fragment (Si RNA), sense strand SEQ ID No. 8, antisense strand SEQ ID No. 9 (sense CCAAGAGUAGCACUUGUUATT; antisense UAACAAGUGCUACUCUUGGTT; sugars from the 5' end r19 d2, backbone not given here)	undetectable level	undetectable level	undetectable level								
O=c1[nH]cc(F)c(=O)[nH]1 [5-Fu, 5-fluorouracil]				14	12	53.8	46.2	8	5	61.5	38.5
